Measured values: PMC6117091, “The C. difficile clnRAB operon initiates adaptations to the host environment in response to LL-37” (PLoS Pathogens, 2018)

System: gene expression in C. difficile 630Δerm
Test: RNA-seq, genes differentially expressed in LL-37
Conditions: 2 µg/ml LL-37, BHIS

Compound: CC[C@H](C)[C@H](NC(=O)[C@H](CCCCN)NC(=O)[C@H](CCC(=O)O)NC(=O)[C@H](CCCCN)NC(=O)[C@H](CO)NC(=O)[C@H](CCCCN)NC(=O)[C@H](CCCNC(=N)N)NC(=O)[C@H](Cc1ccccc1)NC(=O)[C@H](Cc1ccccc1)NC(=O)[C@H](CC(=O)O)NC(=O)CNC(=O)[C@H](CC(C)C)NC(=O)[C@@H](N)CC(C)C)C(=O)NCC(=O)N[C@@H](CCCCN)C(=O)N[C@@H](CCC(=O)O)C(=O)N[C@@H](Cc1ccccc1)C(=O)N[C@@H](CCCCN)C(=O)N[C@@H](CCCNC(=N)N)C(=O)N[C@H](C(=O)N[C@H](C(=O)N[C@@H](CCC(N)=O)C(=O)N[C@@H](CCCNC(=N)N)C(=O)N[C@H](C(=O)N[C@@H](CCCCN)C(=O)N[C@@H](CC(=O)O)C(=O)N[C@@H](Cc1ccccc1)C(=O)N[C@@H](CC(C)C)C(=O)N[C@@H](CCCNC(=N)N)C(=O)N[C@@H](CC(N)=O)C(=O)N[C@@H](CC(C)C)C(=O)N[C@H](C(=O)N1CCC[C@H]1C(=O)N[C@@H](CCCNC(=N)N)C(=O)N[C@H](C(=O)N[C@@H](CCC(=O)O)C(=O)N[C@@H](CO)C(=O)O)[C@@H](C)O)C(C)C)[C@@H](C)CC)C(C)C)[C@@H](C)CC [LL-37]
- 23S_rRNA fold change in LL-37: 0.27
- CD630_00470 (ispD) fold change in LL-37: 0.48
- CD630_01060 (cwlD) fold change in LL-37: 0.43
- CD630_01250 fold change in LL-37: 0.44
- CD630_01631 fold change in LL-37: 0.22
- CD630_01930 (groS) fold change in LL-37: 0.46
- CD630_02910 fold change in LL-37: 3.25
- CD630_03140 fold change in LL-37: 0.41
- CD630_03240 (cbiM) fold change in LL-37: 0.42
- CD630_03250 (cbiN) fold change in LL-37: 0.50
- CD630_03260 (cbiQ1) fold change in LL-37: 0.41
- CD630_03270 (cbiO) fold change in LL-37: 0.40
- CD630_03580 fold change in LL-37: 3.38
- CD630_03830 fold change in LL-37: 2.58
- CD630_03901 fold change in LL-37: 0.43
- CD630_04090 fold change in LL-37: 0.44
- CD630_04440 (ortB) fold change in LL-37: 2.09
- CD630_04670 fold change in LL-37: 3.43
- CD630_04780 (spaF) fold change in LL-37: 3.43
- CD630_04800 (spaG) fold change in LL-37: 2.29
- CD630_04890 fold change in LL-37: 2.26
- CD630_04900 fold change in LL-37: 4.13
- CD630_04960 fold change in LL-37: 4.13
- CD630_04970 fold change in LL-37: 3.86
- CD630_04980 fold change in LL-37: 4.13
- CD630_05000 fold change in LL-37: 3.61
- CD630_05060 fold change in LL-37: 3.54
- CD630_05100 fold change in LL-37: 3.07
- CD630_05101 fold change in LL-37: 3.31
- CD630_05102 fold change in LL-37: 3.35
- CD630_05103 fold change in LL-37: 3.27
- CD630_05490 fold change in LL-37: 4.74
- CD630_05500 fold change in LL-37: 5.52
- CD630_05670 fold change in LL-37: 0.44
- CD630_05770 fold change in LL-37: 2.96
- CD630_05780 fold change in LL-37: 0.47
- CD630_05790 fold change in LL-37: 0.40
- CD630_06140 fold change in LL-37: 0.43
- CD630_06240 fold change in LL-37: 0.45
- CD630_07290 (gcvH) fold change in LL-37: 2.23
- CD630_08450 fold change in LL-37: 0.40
- CD630_08530 (oppB) fold change in LL-37: 3.02
- CD630_08570 (oppF) fold change in LL-37: 2.88
- CD630_09080 fold change in LL-37: 0.23
- CD630_09170 fold change in LL-37: 0.45
- CD630_09260 fold change in LL-37: 2.36
- CD630_09340 fold change in LL-37: 0.39
- CD630_09360 fold change in LL-37: 0.28
- CD630_09950 (serA) fold change in LL-37: 0.23
- CD630_09960 fold change in LL-37: 0.24
- CD630_10280 fold change in LL-37: 0.48
- CD630_10540 (bcd2) fold change in LL-37: 2.94
- CD630_10550 (etfB3) fold change in LL-37: 3.07
- CD630_10560 (etfA3) fold change in LL-37: 3.22
- CD630_10570 (crt2) fold change in LL-37: 2.97
- CD630_10580 (hbd) fold change in LL-37: 3.51
- CD630_10590 (thlA1) fold change in LL-37: 3.56
- CD630_10850 fold change in LL-37: 2.17
- CD630_10860 fold change in LL-37: 2.54
- CD630_10980 fold change in LL-37: 2.17
- CD630_11261 fold change in LL-37: 0.42
- CD630_11540 fold change in LL-37: 0.40
- CD630_11710 (etfB4) fold change in LL-37: 0.45
- CD630_12382 fold change in LL-37: 5.60
- CD630_12400 (vanZ) fold change in LL-37: 28.43
- CD630_12700 fold change in LL-37: 0.45
- CD630_13450 fold change in LL-37: 0.46
- CD630_13460 fold change in LL-37: 0.50
- CD630_13610 fold change in LL-37: 0.37
- CD630_13640 fold change in LL-37: 0.40
- CD630_13720 fold change in LL-37: 0.48
- CD630_13900 fold change in LL-37: 2.35
- CD630_14240 fold change in LL-37: 2.97
- CD630_14890 (metN) fold change in LL-37: 0.32
- CD630_14900 (met I) fold change in LL-37: 0.32
- CD630_15100 fold change in LL-37: 2.24
- CD630_15120 (panC) fold change in LL-37: 2.15
- CD630_15470 (hisZ) fold change in LL-37: 2.92
- CD630_15490 (hisC) fold change in LL-37: 2.86
- CD630_15500 (hisB) fold change in LL-37: 3.12
- CD630_15510 (hisH) fold change in LL-37: 3.29
- CD630_15520 (hisA) fold change in LL-37: 2.80
- CD630_15540 (hisI) fold change in LL-37: 3.10
- CD630_15560 fold change in LL-37: 2.16
- CD630_15660 (ilvB) fold change in LL-37: 2.01
- CD630_15800 (hom2) fold change in LL-37: 0.49
- CD630_16070 fold change in LL-37: 30.25
- CD630_16090 fold change in LL-37: 30.62
- CD630_16100 fold change in LL-37: 64.45
- CD630_16110 fold change in LL-37: 34.77
- CD630_16120 fold change in LL-37: 3.18
- CD630_16130 (cotA) fold change in LL-37: 2.18
- CD630_16170 (clnR) fold change in LL-37: 186.82
- CD630_16180 (clnA) fold change in LL-37: 202.99
- CD630_16190 (clnB) fold change in LL-37: 192.16
- CD630_16200 fold change in LL-37: 2.15
- CD630_16310 (sodA) fold change in LL-37: 2.59
- CD630_16590 fold change in LL-37: 2.69
- CD630_16632 fold change in LL-37: 0.32
- CD630_16740 fold change in LL-37: 2.47
- CD630_16990 (ribE) fold change in LL-37: 4.23
- CD630_17000 (ribD) fold change in LL-37: 3.65
- CD630_17021 (thiS) fold change in LL-37: 2.41
- CD630_17151 fold change in LL-37: 2.24
- CD630_17170 fold change in LL-37: 2.07
- CD630_17452 fold change in LL-37: 0.34
- CD630_17540 fold change in LL-37: 0.42
- CD630_17880 fold change in LL-37: 2.48
- CD630_18020 fold change in LL-37: 3.05
- CD630_18270 fold change in LL-37: 0.47
- CD630_18470 fold change in LL-37: 0.36
- CD630_18860 fold change in LL-37: 0.41
- CD630_18870 (csfU) fold change in LL-37: 5.34
- CD630_18880 (rsiU) fold change in LL-37: 3.69
